Source: patent US20230242530A1, “8-(AZETIDIN-1-YL)-[1,2,4]TRIAZOLO[1,5-A]PYRIDINYL COMPOUNDS, COMPOSITIONS AND METHODS OF USE THEREOF” (Genentech, Inc., priority 2016, published 2023)
pEC50, pKi: −log10 of the molar value.

Legend:
[1] = tested on: JAK1-dependent STAT6 phosphorylation downstream of IL-13 stimulation in BEAS-2B cells; experiment: JAK1 pathway assay in cell lines: IL-13 p-STAT6 BEAS-2B; type: cell-based; settings: BEAS-2B human bronchial epithelial cells, 1 hr compound, IL-13 15 min, MSD readout
Method in brief: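 Phospho-STAT6 read by MSD electrochemiluminescence in lysates of BEAS-2B cells kept in complete growth medium. Cells were pretreated 1 hr at 37 °C with compound (0.2% DMSO final) and stimulated 15 min with IL-13 at its EC90; EC50 is the concentration halving signal versus DMSO.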

[2] = molecular target: T1, isolated recombinant JAK2 kinase domain (Homo sapiens, UniProt O60674); experiment: JAK enzyme assay, JAK2 kinase domain (Caliper LabChip); type: biochemical; settings: 0.2 nM JAK2, ATP 25 μM, Morrison tight binding model
T1 construct: isolated recombinant JAK1 and JAK2 kinase domain
T1 sequence (O60674 849-1124 limits assumed): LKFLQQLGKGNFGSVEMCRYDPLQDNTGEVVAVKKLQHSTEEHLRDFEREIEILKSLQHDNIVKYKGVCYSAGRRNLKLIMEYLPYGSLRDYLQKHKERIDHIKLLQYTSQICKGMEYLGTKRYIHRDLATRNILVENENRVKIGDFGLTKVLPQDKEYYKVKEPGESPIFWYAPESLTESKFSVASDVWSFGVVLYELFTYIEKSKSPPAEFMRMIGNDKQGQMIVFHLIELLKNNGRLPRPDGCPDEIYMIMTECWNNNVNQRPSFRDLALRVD
Method in brief: (§1)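 Ki values were obtained by Morrison tight-binding analysis with ATP-competitive correction, Ki=Ki,app/(1+[ATP]/Km,app). Phosphorylated versus total fluorescent JAK3-derived peptide was quantified on a Caliper LabChip. Kinase reactions with the isolated recombinant domains ran 30 min at 22 °C before EDTA quench (50 mM final).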

[3] = molecular target: T2, isolated recombinant JAK1 kinase domain (Homo sapiens, UniProt P23458); experiment: JAK enzyme assay, JAK1 kinase domain (Caliper LabChip); type: biochemical; settings: 1.5 nM JAK1, ATP 25 μM, Morrison tight binding model
T2 construct: isolated recombinant JAK1 and JAK2 kinase domain
T2 sequence (P23458 875-1153 limits assumed): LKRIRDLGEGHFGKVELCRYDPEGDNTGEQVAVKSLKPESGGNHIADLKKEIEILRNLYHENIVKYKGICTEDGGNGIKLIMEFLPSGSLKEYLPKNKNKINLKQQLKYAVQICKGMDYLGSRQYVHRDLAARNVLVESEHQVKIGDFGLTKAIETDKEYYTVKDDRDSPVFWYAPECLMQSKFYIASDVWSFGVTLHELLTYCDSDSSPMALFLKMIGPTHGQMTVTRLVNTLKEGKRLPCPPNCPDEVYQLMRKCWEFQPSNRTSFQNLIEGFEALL
Method in brief: as §1

Row | pKi [2] | pKi [3] | SMILES | pEC50 [1]
1 | 8.52 | 9.00 | CCCc1cnn(C2(CC#N)CN(c3cccn4nc(Nc5cnn(CC(=O)N6CCN(C)CC6)c5)nc34)C2)c1 [Example 22] | 7.44
2 | 8.85 | 9.40 | COc1cnn(C2(CC#N)CN(c3cccn4nc(Nc5cnn(CC(=O)N6CCN(C)CC6)c5)nc34)C2)c1 [Example 28, 2-[3-(4-methoxypyrazol-1-yl)-1-[2-[[1-[2-(4-methylpiperazin-1-yl)-2-oxo-ethyl]pyrazol-4-yl]amino]-[1,2,4]triazolo[1,5-a]pyridin-8-yl]azetidin-3-yl]acetonitrile] | 7.27
3 | 9.40 | 9.70 | CN1CCN(C(=O)Cn2cc(Nc3nc4c(N5CC(CC#N)(Cc6ccccc6Cl)C5)cccn4n3)cn2)CC1 [Example 126, 2-[3-[(2-chlorophenyl)methyl]-1-[2-[[1-[2-(4-methylpiperazin-1-yl)-2-oxo-ethyl]pyrazol-4-yl]amino]-[1,2,4]triazolo[1,5-a]pyridin-8-yl]azetidin-3-yl]acetonitrile] | 7.92
4 | 8.03 | 8.96 | CCc1cnn(C2(CC#N)CN(c3cccn4nc(Nc5ccc(C(=O)N6CC7(CCN(C)CC7)C6)cc5)nc34)C2)c1 [Example 85, 2-[3-(4-ethylpyrazol-1-yl)-1-[2-[4-(7-methyl-2,7-diazaspiro[3.5]nonane-2-carbonyl)anilino]-[1,2,4]triazolo[1,5-a]pyridin-8-yl]azetidin-3-yl]acetonitrile] | 6.71
5 | 8.82 | 9.15 | CN1CCN(C(=O)Cn2cc(Nc3nc4c(N5CC(CC#N)(n6cccn6)C5)cccn4n3)cn2)CC1 [Example 18] | 7.68
6 | 8.80 | 9.15 | CC(C)Sc1cnn(C2(CC#N)CN(c3cccn4nc(Nc5cnn(CC(=O)N6CCN(C)CC6)c5)nc34)C2)c1 [Example 105, 2-[3-(4-isopropylsulfanylpyrazol-1-yl)-1-[2-[[1-[2-(4-methylpiperazin-1-yl)-2-oxo-ethyl]pyrazol-4-yl]amino]-[1,2,4]triazolo[1,5-a]pyridin-8-yl]azetidin-3-yl]acetonitrile] | 7.38
7 | 8.57 | 9.15 | CCc1cnn(C2(CC#N)CN(c3cccn4nc(Nc5cnn(CC(=O)N6CCC(NCC(C)(F)F)CC6)c5)nc34)C2)c1 [Example 30, 2-[1-[2-[[1-[2-[4-(2,2-difluoropropylamino)-1-piperidyl]-2-oxo-ethyl]pyrazol-4-yl]amino]-[1,2,4]triazolo[1,5-a]pyridin-8-yl]-3-(4-ethylpyrazol-1-yl)azetidin-3-yl]acetonitrile] | 6.98
8 | 8.77 | 9.22 | CCc1cnn(C2(CC#N)CN(c3cccn4nc(Nc5cnn(CC(=O)N(C)C)c5)nc34)C2)c1 [Example 143, 2-[4-[[8-[3-(cyanomethyl)-3-(4-ethylpyrazol-1-yl)azetidin-1-yl]-[1,2,4]triazolo[1,5-a]pyridin-2-yl]amino]pyrazol-1-yl]-N,N-dimethyl-acetamide] | 7.51
9 | 8.82 | 9.52 | CN(CC1(C#N)CC1)C1CCN(C(=O)Cn2cc(Nc3nc4c(N5CC(CC#N)(c6cccc(Cl)c6)C5)cccn4n3)cn2)CC1 [Example 100, 1-[[[1-[2-[4-[[8-[3-(3-chlorophenyl)-3-(cyanomethyl)azetidin-1-yl]-[1,2,4]triazolo[1,5-a]pyridin-2-yl]amino]pyrazol-1-yl]acetyl]-4-piperidyl]-methyl-amino]methyl]cyclopropane carbonitrile] | 7.59
10 | 9.52 | 9.40 | CCc1cnn(C2(CC#N)CN(c3cccn4nc(Nc5cnn(CC(=O)N6CCN(CCNC(=O)CC78CC9CC(CC(C9)C7)C8)CC6)c5)nc34)C2)c1 [Example 58, 2-(l-adamantyl)-N-[2-[4-[2-[4-[[8-[3-(cyanomethyl)-3-(4-ethylpyrazol-1-yl)azetidin-1-yl]-[1,2,4]triazolo[1,5-a]pyridin-2-yl]amino]pyrazol-1-yl]acetyl]piperazin-1-yl]ethyl]acetamide] | 7.89
11 | 9.10 | 9.52 | N#CCC1(n2cc(C(F)(F)F)cn2)CN(c2cccn3nc(Nc4cnn(CC(=O)N5CCC(N6CCOCC6)CC5)c4)nc23)C1 [Example 96, 2-[1-[2-[[1-[2-(4-morpholino-1-piperidyl)-2-oxo-ethyl]pyrazol-4-yl]amino]-[1,2,4]triazolo[1,5-a]pyridin-8-yl]-3-[4-(trifluoromethyl)pyrazol-1-yl]azetidin-3-yl]acetonitrile] | 7.55

Row | SMILES | pKi [2] | pKi [3] | pEC50 [1]
12 | CCc1cnn(C2(CC#N)CN(c3cccn4nc(Nc5ccc(CC(=O)N6CCN(C)CC6)nc5)nc34)C2)c1 [Example 74] | 8.74 | 9.40 | 7.70
